# Target: Induced myeloid leukemia cell differentiation protein Mcl-1 (Homo sapiens, UniProt Q07820)
# Experiment: Fluorescence Polarization Competition Assay
# Method: The assay was carried out in black half-area 96-well NBS plate (Corning), containing 15 nM of MCL-1 (BPS Bioscience), 5 nM of FITC-Bim and 3-fold serial diluted test compounds in a total volume of 50 μL of assay buffer (20 mM HEPES, 50 mM NaCl, 0.002% Tween 20, 1 mM TCEP, and 1% DMSO). The reaction plate was incubated for 1 hour at room temperature. The change of anisotropy is measured with an Envision multimode plate reader (PerkinElmer) at emission wavelength 535 nm. Fluorescence polarization was calculated in mP unit and the percentage inhibition was calculated by % inhibition=100×(mPDMSO−mP)/(mPDMSO−mPPC), in which mPDMSO is the DMSO control, and mPpc is the positive control. IC50 values were determined from a 10-point dose response curve by fitting the percent inhibition against compound concentration using the GraphPad Prism software
# Sequence of Induced myeloid leukemia cell differentiation protein Mcl-1 (Q07820 whole entry): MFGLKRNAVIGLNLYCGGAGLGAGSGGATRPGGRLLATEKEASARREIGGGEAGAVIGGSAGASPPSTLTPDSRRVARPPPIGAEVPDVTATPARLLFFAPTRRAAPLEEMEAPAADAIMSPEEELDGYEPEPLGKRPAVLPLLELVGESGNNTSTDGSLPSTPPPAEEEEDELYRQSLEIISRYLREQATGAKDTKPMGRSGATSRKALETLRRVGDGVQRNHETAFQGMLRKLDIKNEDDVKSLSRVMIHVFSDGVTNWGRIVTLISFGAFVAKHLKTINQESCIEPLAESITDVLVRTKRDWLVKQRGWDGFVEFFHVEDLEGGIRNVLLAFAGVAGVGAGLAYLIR
row,Ki [nM],Compound
1,< 300,CN1C/C=C/[C@H](OC(=O)NC2CC2)[C@@H]2CC[C@H]2CN2C[C@@]3(CCCc4cc(Cl)ccc43)COc3ccc(cc32)S(=O)(=O)NC(=O)C1(C)C
2,< 300,CN(C)CCN(C)C(=O)O[C@H]1/C=C/COC(C)(C)C(=O)NS(=O)(=O)c2ccc3c(c2)N(C[C@@H]2CC[C@H]21)C[C@@]1(CCOc2cc(Cl)ccc21)CO3
3,< 300,CCO[C@@H]1CCN(C(=O)O[C@H]2/C=C/COC(C)(C)C(=O)NS(=O)(=O)c3ccc4c(c3)N(C[C@@H]3CC[C@H]32)C[C@@]2(CCOc3cc(Cl)ccc32)CO4)C1
4,< 300,COC1CN(C(=O)O[C@H]2/C=C/COC(C)(C)C(=O)NS(=O)(=O)c3ccc4c(c3)N(C[C@@H]3CC[C@H]32)C[C@@]2(CCOc3cc(Cl)ccc32)CO4)C1
5,< 300,CN(C)[C@@H]1CCN(C(=O)O[C@H]2/C=C/COC(C)(C)C(=O)NS(=O)(=O)c3ccc4c(c3)N(C[C@@H]3CC[C@H]32)C[C@@]2(CCOc3cc(Cl)ccc32)CO4)C1
6,< 300,CN(C)C1CN(C(=O)O[C@H]2/C=C/COC(C)(C)C(=O)NS(=O)(=O)c3ccc4c(c3)N(C[C@@H]3CC[C@H]32)C[C@@]2(CCOc3cc(Cl)ccc32)CO4)C1
7,< 100,"CO[C@H]1/C=C/CN2CCC[C@H]2C(=O)NS(=O)(=O)c2ccc3c(c2)N(C[C@@H]2CC[C@H]21)C[C@@]1(CCCc2cc(Cl)ccc21)CO3 [US11130769, Ex. No. 100]"
8,< 100,"CO[C@@H]1/C=C/CN(C)C(=O)NS(=O)(=O)c2ccc3c(c2)N(C[C@@H]2CC[C@H]21)C[C@@]1(CCCc2cc(Cl)ccc21)CO3 [US11130769, Ex. No. 108]"
9,< 100,"CN(C)C(=O)O[C@@H]1/C=C/CN(C)C2(CCC2)C(=O)NS(=O)(=O)c2ccc3c(c2)N(C[C@@H]2CC[C@H]21)C[C@@]1(CCCc2cc(Cl)ccc21)CO3 [US11130769, Ex. No. 139]"
10,< 300,"CN(C)C[C@H]1CCCN1C(=O)O[C@H]1/C=C/COC(C)(C)C(=O)NS(=O)(=O)c2ccc3c(c2)N(C[C@@H]2CC[C@H]21)C[C@@]1(CCCc2cc(Cl)ccc21)CO3 [US11130769, Ex. No. 169]"
11,< 100,"CCOC(=O)N(C)[C@@H]1/C=C/COC(C)(C)C(=O)NS(=O)(=O)c2ccc3c(c2)N(C[C@@H]2CC[C@H]21)C[C@@]1(CCCc2cc(Cl)ccc21)CO3 [US11130769, Ex. No. 252]"

# — BindingDB's records for patent US11130769 (Prelude Therapeutics, 2021)
